Laboratory results reported in patent US20230064990A1, “DOSING REGIMENS AND METHODS FOR TREATING CANCER” (Panbela Therapeutics, Inc., priority 2020, published 2023).
“And” between values parts separate entries of the source, which are not always exact repeats. Identical values can stand only once. Like-named read-outs stand apart in the source and are kept apart here.

How the values were obtained:
[1] = Phase 1a/1b study in combination with G and A, pharmacokinetics; format: in vivo, human; conditions: for Cmax / Tmax: human, plasma, subcutaneous
Description: (§1) G (1000 mg/m^2) and A (125 mg/m^2) were administered intravenously on Days 1, 8, and 15 of each cycle. […] PK was evaluated on day 1 of cycle 1. Efficacy was assessed by CA19-9 levels, objective response was assessed by RECIST criteria, progression-free survival (PFS) and overall survival (OS).
(§2) This is a multicenter, open label, Phase 1a/1b study to evaluate to evaluate the safety, tolerability, pharmacokinetics and efficacy of (S,S)-(HO)2DEHSPM when administered in combination with G and A as first-line therapy in pancreatic cancer patients previously untreated for metastatic disease. The objective was to determine a recommended Phase 2 dose. Using a modified 3+3 dose escalation scheme, cohorts of subjects were dosed with subcutaneous injections of (S,S)-(HO)2DEHSPM at 0.2, 0.4 or 0.6 mg/kg days 1-5 of each 28-day cycle. Gemcitabine (1000 mg/m^2) and A (125 mg/m^2) were administered intravenously on Days 1, 8, and 15 of each cycle. […] PK was evaluated on day 1 of cycle 1. Efficacy was assessed by objective response rate (ORR) using RECIST criteria and by changes in CA19-9 levels. Subjects were treated until disease progression or the development of dose-limiting toxicity. Based upon initial safety findings and preliminary signals of efficacy, the protocol was amended to evaluate progression-free survival (PFS) and overall survival (OS) and expand the study to up to 36 subjects at the recommended Phase 2 dose. To date, 20 subjects were enrolled in cohorts 1-3 and evaluated for dose limiting toxicity and early signals of efficacy.

[2] = system: human L3.6pl pancreatic cancer cells; experiment: Orthotopic implantation of L3.6pl pancreatic cancer cells into nude mice; conditions: for Median survival: control group 21 days
Description: These studies examined the anti-neoplastic effects of subcutaneous administration of (S,S)-(HO)2DEHSPM following orthotopic implantation of human L3.6pl pancreatic cancer cells into the pancreas of nude mice.
L3.6pl cells were injected into the pancreas of nude mice; treatment was initiated by group (n=10/group planned) 7-10 days later following establishment of tumors:
Study 1: saline (control), (S,S)-(HO)2DEHSPM (25 mg/kg), (S,S)-(HO)2DEHSPM (50 mg/kg), and (S,S)-(HO)2DEHSPM (100 mg/kg) daily (QD) for 4 to 6 weeks (wks).
Study 2: saline (control), (S,S)-(HO)2DEHSPM (25 mg/kg QD), (S,S)-(HO)2DEHSPM (25 mg/kg 3×/wk), (S,S)-(HO)2DEHSPM (15 mg/kg 3×/wk), and (S,S)-(HO)2DEHSPM (5 mg/kg 3×/wk) for 4 to 6 wks.
Study 3: saline (control), gemcitabine (GEM) (100 mg/kg 2×/wk, intraperitoneally), (S,S)-(HO)2DEHSPM (25 mg/kg 3×/wk), and (S,S)-(HO)2DEHSPM+GEM for 4 to 6 wks.

metastatic PDA = experiment: Phase 1a/1b study in combination with G and A, efficacy (RECIST, CA19-9); format: in vivo, human
Description: as §1, §2

[3] = Phase 1a/1b study in combination with G and A, safety; format: in vivo, human
Description: as §1, §2

clinical = conditions: human, in vivo
Description: Safety and tolerability were evaluated by clinical and laboratory assessments. PK was evaluated on Days 1 and 18 of cycle 1. Efficacy was assessed by RECIST criteria and overall survival.

[4] = Study 3, compared with controls, GEM 100 mg/kg 2×/wk ip, (S,S)-(HO)2DEHSPM 25 mg/kg 3×/wk
[5] = Cohorts 2 and 3, N=13 evaluable, with G and A
[6] = in combination with G+A, previously untreated metastatic PDA
[7] = interim, cohorts 2 and 3, with G and A
[8] = N=20, (S,S)-(HO)2DEHSPM with G + A
[9] = N=20, in combination with G + A

CCNCCC(O)CNCCCCNCC(O)CCNCC [(S,S)-(HO)2DEHSPM, (6S,15S)-3,8,13,18-teraazaicosane-6,15-diol]
PK parameters ([1]; cohort 1 (0.2 mg/kg), day 1 of cycle 1): below the limits of detection at most time points | Cmax ([1]; sc, Cohort 1 (0.2 mg/kg) N=4, day 1 of cycle 1, read-out: Cmax Mean): 26.6 ng/mL | Cmax ([1]; sc, Cohort 2 (0.4 mg/kg) N=7, day 1 of cycle 1, read-out: Cmax Mean): 115 ng/mL | Cmax ([1]; sc, Cohort 3 (0.6 mg/kg) N=5, day 1 of cycle 1, read-out: Cmax Mean): 147 ng/mL | Tmax ([1]; Cohort 1 (0.2 mg/kg) N=4): 30 min | Cmax ([1]; Cohort 1 (0.2 mg/kg) N=4, read-out: Cmax Range): 13.2 to 41.6 ng/mL | Tmax ([1]; Cohort 2 (0.4 mg/kg) N=7): 30 min | Cmax ([1]; Cohort 2 (0.4 mg/kg) N=7, read-out: Cmax Range): 77.1 to 167 ng/mL | Tmax ([1]; Cohort 3 (0.6 mg/kg) N=5): 30 min | Cmax ([1]; Cohort 3 (0.6 mg/kg) N=5, read-out: Cmax Range): 91.9 to 195 ng/mL | reduction in pancreas weight ([2]; Study 1, 25 mg/kg QD subcutaneous, 4 to 6 wks, tumor bearing mice): 82.9% | toxicity / deaths ([2]; Study 1, 50 and 100 mg/kg QD): earlier deaths and proved to be toxic | decreases in pancreas weight and tumor volume ([2]; Study 2, 5 mg/kg 3×/wk): no decreases were noted | decrease in pancreas weight ([2]; Study 2, 15 mg/kg 3×/wk): 20.1% | decrease in tumor volume ([2]; Study 2, 15 mg/kg 3×/wk): 52.6% | reduction in pancreas weight ([2]; Study 2, 25 mg/kg 3×/wk): 47.8% | reduction in tumor volume ([2]; Study 2, 25 mg/kg 3×/wk): 66.6% | Median survival ([2]; Study 2, 25 mg/kg 3×/wk): 42 days | reduction in pancreas weight ([2]; Study 2, 25 mg/kg QD): 72.7% | reduction in tumor volume ([2]; Study 2, 25 mg/kg QD): 81.4% | Median survival ([2]; Study 2, 25 mg/kg QD): 32 days | decreases in body weight ([2]; Study 3, GEM 100 mg/kg 2×/wk ip, (S,S)-(HO)2DEHSPM 25 mg/kg 3×/wk, 4 to 6 wks): 35.6% | decreases in pancreas weight [2, 4]: 58.8% | decreases in tumor volume [2, 4]: 58.4% | Best response PR, number of evaluable subjects (metastatic PDA; [5]): 8 | Best response PR, percent of evaluable subjects (metastatic PDA; [5]): 62% | Best response SD, number of evaluable subjects (metastatic PDA; [5]): 5 | Best response SD, percent of evaluable subjects (metastatic PDA; [5]): 38% | subjects with CA 19-9 maximum decrease greater than 60% (metastatic PDA; cohorts 2 and 3, N=16, with G and A): 69% | DCR (metastatic PDA; [6]): 85% | ORR (metastatic PDA; [6]): 62% | CA19-9 levels decreased (metastatic PDA; interim, cohorts 2 and 3, 7 of 8 evaluable subjects, with G and A): 76-95% | Stable disease (metastatic PDA; [7]): 1 | partial responses (metastatic PDA; [7]): 5 patients | Grade ≥3 Anemia related to the named study medication (subjects) ([3]; N=20): 0 | Grade ≥3 Dehydration related to the named study medication (subjects) ([3]; N=20): 0 | Grade ≥3 Delirium related to the named study medication (subjects) ([3]; N=20): 0 | Grade ≥3 Dyspnea related to the named study medication (subjects) ([3]; N=20): 0 | Grade ≥3 Elevated LFTs related to the named study medication (subjects) ([3]; N=20): 4 | Grade ≥3 Elevated Lipase related to the named study medication (subjects) ([3]; N=20): 1 | Grade ≥3 Fatigue related to the named study medication (subjects) ([3]; N=20): 0 | Grade ≥3 Hiccups (Intractable) related to the named study medication (subjects) ([3]; N=20): 0 | Grade ≥3 Hyponatremia related to the named study medication (subjects) ([3]; N=20): 0 | Grade ≥3 Neutropenia related to the named study medication (subjects) ([3]; N=20): 0 | Grade ≥3 Thrombocytopenia related to the named study medication (subjects) ([3]; N=20): 0 | Grade ≥3 Anemia related to any study medication, Total (%) [3, 8]: (15%) | Grade ≥3 Anemia related to any study medication, Total N [3, 8]: 3 | Grade ≥3 Dehydration related to any study medication, Total (%) [3, 8]: (5%) | Grade ≥3 Dehydration related to any study medication, Total N [3, 8]: 1 | Grade ≥3 Delirium related to any study medication, Total (%) [3, 8]: (5%) | Grade ≥3 Delirium related to any study medication, Total N [3, 8]: 1 | Grade ≥3 Dyspnea related to any study medication, Total (%) [3, 8]: (5%) | Grade ≥3 Dyspnea related to any study medication, Total N [3, 8]: 1 | Grade ≥3 Elevated LFTs related to any study medication, Total (%) [3, 8]: (20%) | Grade ≥3 Elevated LFTs related to any study medication, Total N [3, 8]: 4 | Grade ≥3 Elevated Lipase related to any study medication, Total (%) [3, 8]: (5%) | Grade ≥3 Elevated Lipase related to any study medication, Total N [3, 8]: 1 | Grade ≥3 Fatigue related to any study medication, Total (%) [3, 8]: (5%) | Grade ≥3 Fatigue related to any study medication, Total N [3, 8]: 1 | Grade ≥3 Hiccups (Intractable) related to any study medication, Total (%) [3, 8]: (5%) | Grade ≥3 Hiccups (Intractable) related to any study medication, Total N [3, 8]: 1 | Grade ≥3 Hyponatremia related to any study medication, Total (%) [3, 8]: (5%) | Grade ≥3 Hyponatremia related to any study medication, Total N [3, 8]: 1 | Grade ≥3 Neutropenia related to any study medication, Total (%) [3, 8]: (30%) | Grade ≥3 Neutropenia related to any study medication, Total N [3, 8]: 6 | Grade ≥3 Thrombocytopenia related to any study medication, Total (%) [3, 8]: (5%) | Grade ≥3 Thrombocytopenia related to any study medication, Total N [3, 8]: 1 | Grade ≥ 3 Anemia, % [3, 9]: 15% | Grade ≥ 3 Diarrhea, % [3, 9]: 0% | Grade ≥ 3 Fatigue, % [3, 9]: 5% | Grade ≥ 3 Leukopenia (G3-4), % [3, 9]: 15% | Grade ≥ 3 Neutropenia (G3-4), % [3, 9]: 30% | Grade ≥ 3 Peripheral Neuropathy, % [3, 9]: 0% | Grade ≥ 3 Thrombocytopenia, % [3, 9]: 5% | Diarrhea, Grade 1 (related AE, subjects) ([3]; N=20, with G+A): 1 | Diarrhea, Grade 2 (related AE, subjects) ([3]; N=20, with G+A): 1 | Diarrhea, Grade 3 (related AE, subjects) ([3]; N=20, with G+A): 0 | Diarrhea, Grade 4 (related AE, subjects) ([3]; N=20, with G+A): 0 | Diarrhea, Grade 5 (related AE, subjects) ([3]; N=20, with G+A): 0 | Diarrhea, Total (%) (related AE) ([3]; N=20, with G+A): 10% | Diarrhea, Total N (related AE) ([3]; N=20, with G+A): 2 | Elevated Liver Function Tests (LFTs), Grade 1 (related AE, subjects) ([3]; N=20, with G+A): 0 | Elevated Liver Function Tests (LFTs), Grade 2 (related AE, subjects) ([3]; N=20, with G+A): 0 | Elevated Liver Function Tests (LFTs), Grade 3 (related AE, subjects) ([3]; N=20, with G+A): 3 | Elevated Liver Function Tests (LFTs), Grade 4 (related AE, subjects) ([3]; N=20, with G+A): 1 | Elevated Liver Function Tests (LFTs), Grade 5 (related AE, subjects) ([3]; N=20, with G+A): 0 | Elevated Liver Function Tests (LFTs), Total (%) (related AE) ([3]; N=20, with G+A): 20% | Elevated Liver Function Tests (LFTs), Total N (related AE) ([3]; N=20, with G+A): 4 | Fatigue, Grade 1 (related AE, subjects) ([3]; N=20, with G+A): 4 | Fatigue, Grade 2 (related AE, subjects) ([3]; N=20, with G+A): 3 | Fatigue, Grade 3 (related AE, subjects) ([3]; N=20, with G+A): 1 | Fatigue, Grade 4 (related AE, subjects) ([3]; N=20, with G+A): 0 | Fatigue, Grade 5 (related AE, subjects) ([3]; N=20, with G+A): 0 | Fatigue, Total (%) (related AE) ([3]; N=20, with G+A): 40% | Fatigue, Total N (related AE) ([3]; N=20, with G+A): 8 | Injection site pain, Grade 1 (related AE, subjects) ([3]; N=20, with G+A): 4 | Injection site pain, Grade 2 (related AE, subjects) ([3]; N=20, with G+A): 0 | Injection site pain, Grade 3 (related AE, subjects) ([3]; N=20, with G+A): 0 | Injection site pain, Grade 4 (related AE, subjects) ([3]; N=20, with G+A): 0 | Injection site pain, Grade 5 (related AE, subjects) ([3]; N=20, with G+A): 0 | Injection site pain, Total (%) (related AE) ([3]; N=20, with G+A): 20% | Injection site pain, Total N (related AE) ([3]; N=20, with G+A): 4 | Nausea, Grade 1 (related AE, subjects) ([3]; N=20, with G+A): 1 | Nausea, Grade 2 (related AE, subjects) ([3]; N=20, with G+A): 1 | Nausea, Grade 3 (related AE, subjects) ([3]; N=20, with G+A): 0 | Nausea, Grade 4 (related AE, subjects) ([3]; N=20, with G+A): 0 | Nausea, Grade 5 (related AE, subjects) ([3]; N=20, with G+A): 0 | Nausea, Total (%) (related AE) ([3]; N=20, with G+A): 10% | Nausea, Total N (related AE) ([3]; N=20, with G+A): 2 | liver enzyme elevation ([3]; interim, one patient in cohort 2 (0.4 mg/kg), with G and A): grade 3-4 reversible liver enzyme elevation | (S,S)-(HO)2DEHSPM-related bone marrow suppression or peripheral neuropathy ([3]; interim, with G and A): no evidence of (S,S)-(HO)2DEHSPM-related bone marrow suppression or peripheral neuropathy | reversibility of (S,S)-(HO)2DEHSPM-related increases in liver toxicity ([3]; when administration was interrupted and dose-reduced or discontinued): reversed in all but one subject | MTD at 3 weeks (clinical): < 0.8 mg/kg and < 0.8 mg/kg/day
